# Values quoted from earlier work in patent US20250207102A1, “METHODS FOR CO-CULTURING GENOTOXIC BACTERIA AND ORGANOIDS” (priority 2022, published 2025).
# How the values were obtained:
# [1] = test system: Smad2
# [2] = test system: ALK-1,-2,-3,-6 and MAPK
smiles,measurement,setting,value
Cc1cccc(-c2nn(C(=S)Nc3ccccc3)cc2-c2ccnc3ccccc23)n1 [A83-01],phosphorylation of Smad2,[1],blocks phosphorylation of Smad2
same,"inhibition of ALK-1,-2,-3,-6 and MAPK activity",[2],only weakly inhibits
